Measurements taken from the supplement of paper PMC10331698.
± gives the standard deviation of the averaged measurements.

Columns and labels:
Test in all cases: level (log10 ratio to DMSO vehicle control); higher = higher biomarker level / cell amount than vehicle control
Settings in all cases: in DMSO
[1] = compound: C=C(C)C(=O)OCCC(F)(F)C(F)(F)C(F)(F)C(F)(F)C(F)(C(F)(F)F)C(F)(F)F [(Perfluoro-5-methylhexyl)ethyl 2-methylprop-2-enoate]
In short: (§1)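 Test substances went onto BioMAP Diversity Plus human primary cell co-cultures 1 h ahead of cytokine or activator stimulation, with final DMSO below 0.1% and one well per endpoint. After 24 h of incubation (MyoF 48 h; BT 72 h, or 6 d for secreted IgG), ELISA gave biomarker levels, sulforhodamine B gave cell amount and Alamar Blue gave PBMC viability/proliferation. Values were normalized to the mean of 8 same-plate DMSO wells, log10 transformed, and blinded duplicates were averaged.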

[2] = compound: C=CC(F)(F)C(F)(F)C(F)(F)C(F)(F)C(F)(F)C(F)(F)C(F)(F)C(F)(F)C=C [1,8-Divinylperfluorooctane]
In short: as §1

[3] = compound: FC(F)C(F)(F)COCC1CO1 [((2,2,3,3-Tetrafluoropropoxy)methyl)oxirane]
In short: as §1

Heptafluorobutyramide = compound: NC(=O)C(F)(F)C(F)(F)C(F)(F)F [Heptafluorobutyramide]
In short: as §1

Pentafluoropropionamide = compound: NC(=O)C(F)(F)C(F)(F)F [Pentafluoropropionamide]
In short: as §1

[4] = compound: NCC(F)(F)C(F)(F)C(F)(F)C(F)(F)C(F)(F)C(F)(F)C(F)(F)F [1H,1H-Perfluorooctylamine]
In short: as §1

[5] = compound: O=C(O)C(F)(F)OC(F)(F)C(F)(F)OC(F)(F)F [Perfluoro-3,6-dioxaheptanoic acid]
In short: as §1

Test System	level (log10) ([1]; 6700 nM)	level (log10) ([1]; 20000 nM)	level (log10) ([2]; 6700 nM)	level (log10) ([2]; 20000 nM)	level (log10) ([3]; 6700 nM)	level (log10) ([3]; 20000 nM)	level (log10) ([3]; 60000 nM)	level (log10) (Heptafluorobutyramide; 6700 nM)	level (log10) (Heptafluorobutyramide; 20000 nM)	level (log10) (Heptafluorobutyramide; 60000 nM)	level (log10) (Pentafluoropropionamide; 6700 nM)	level (log10) (Pentafluoropropionamide; 20000 nM)	level (log10) (Pentafluoropropionamide; 60000 nM)	level (log10) ([4]; 6700 nM)	level (log10) ([4]; 20000 nM)	level (log10) ([4]; 60000 nM)	level (log10) ([5]; 6700 nM)	level (log10) ([5]; 20000 nM)	level (log10) ([5]; 60000 nM)
KF3CT:SRB	-0.006 ± 0.0014	0.003 ± 0.016	-0.011 ± 0.018	-0.0235 ± 0.005	-0.0085 ± 0.0035	-0.0055 ± 0.0092	0.012 ± 0.034	-0.0055 ± 0.0035	0.0025 ± 0.0078	-0.001 ± 0.011	-0.006 ± 0.0014	-0.0025 ± 0.0035	-0.007 ± 0.023	-0.01 ± 0.011	-0.0065 ± 0.013	0.0065 ± 0.035	0.0035 ± 0.0021	-0.0015 ± 0.0021	-0.0045 ± 0.005
lMphg:CD62E/E-Selectin	-0.0135 ± 0.011	-0.01 ± 0.017	-0.006 ± 0.024	-0.054 ± 0.038	-0.0155 ± 0.0064	-0.0195 ± 0.029	-0.035 ± 0.011	0.035 ± 0.051	-0.009 ± 0.064	-0.0285 ± 0.054	-0.018 ± 0.0014	0.016 ± 0.014	-0.013 ± 0.0071	0.0195 ± 0.023	0.0085 ± 0.015	0.013 ± 0.03	0.0105 ± 0.0021	0.003 ± 0.017	0.061
3C:CCL2/MCP-1	-0.0145 ± 0.025	0.006 ± 0.044	-0.0055 ± 0.0021	0.031 ± 0.025	0.0045 ± 0.025	0.016 ± 0.028	0.0215 ± 0.042	-0.011 ± 0.0057	-0.0125 ± 0.0064	0.0065 ± 0.03	0.006 ± 0.018	-0.007 ± 0.0099	0.0275 ± 0.00071	-0.003 ± 0.0099	0.0095 ± 0.021	0.0275 ± 0.028	-0.023 ± 0.044	-0.015 ± 0.013	-0.023 ± 0.021
CASM3C:CD87/uPAR	-0.0305 ± 0.013	-0.035	-0.002 ± 0.014	0.0175 ± 0.0035	-0.029 ± 0.016	-0.0415 ± 0.005	-0.034 ± 0.014	-0.0065 ± 0.026	-0.0115 ± 0.032	-0.033 ± 0.054	-0.031 ± 0.05	-0.012 ± 0.0071	-0.019 ± 0.03	-0.044 ± 0.083	-0.0315 ± 0.043	0.025 ± 0.047	-0.0105 ± 0.043	0.022 ± 0.013	-0.006 ± 0.018
